Laboratory results taken from ChEMBL document CHEMBL3885861, “Open TG-GATES”.

Species: Rattus norvegicus
Assay: Open TG-GATES - Regimen: Single
Format: toxicity, organism-based, Sprague-Dawley
Set-up: regimen Single, gender Male, age 6 weeks
Conditions: in vivo, po, 1000 mg/kg, route gavage, dose level High; for APTT / Bas / Eos / Fbg / Hb / Ht / Lym / MCH / MCHC / MCV / Mono / Neu / PT / Plat / RBC / Ret / WBC: tissue Blood; for KIDNEY_L / KIDNEY_R / KIDNEY_TOTAL: tissue Kidney; for LIVER: tissue Liver; for A/G / ALP / ALT / AST / BUN / CRE / Ca / Cl / DBIL / GLC / IP / K / LDH / Na / PL / RALB / TBIL / TC / TG / TP / gamma-GTP: tissue Plasma

O=C(O)c1cc(/N=N/c2ccc(S(=O)(=O)Nc3ccccn3)cc2)ccc1O [SULFASALAZINE]
TERMINAL_BW (3 h): 210.6 g | APTT (3 h): 19.5 s | Bas (3 h): 0% | Eos (3 h): 1% | Fbg (3 h): 221.8 mg/dL | Hb (3 h): 13.4 g/dL | Ht (3 h): 39.6% | Lym (3 h): 72.2% | MCH (3 h): 21.2 pg | MCHC (3 h): 33.9% | MCV (3 h): 62.4 fL | Mono (3 h): 2.8% | Neu (3 h): 23.2% | PT (3 h): 12.7 s | Plat (3 h): 116.4 x10_4/uL | RBC (3 h): 633.8 x10_4/ul | Ret (3 h): 7% | WBC (3 h): 94.9 x10_2/uL | KIDNEY_L (3 h): 1 g | KIDNEY_R (3 h): 1 g | KIDNEY_TOTAL (3 h): 1.9 g | LIVER (3 h): 9.7 g | A/G (3 h): 1.5 | ALP (3 h): 1059.6 IU/L | ALT (3 h): 39.4 IU/L | AST (3 h): 67.8 IU/L | BUN (3 h): 11.4 mg/dL | CRE (3 h): 0.4 mg/dL | Ca (3 h): 10.7 mg/dL | Cl (3 h): 102.4 meq/L | DBIL (3 h): 0.064 mg/dL | GLC (3 h): 196.6 mg/dL | IP (3 h): 9.4 mg/dL | K (3 h): 4 meq/L | LDH (3 h): 203.6 IU/L | Na (3 h): 139.6 meq/L | PL (3 h): 139.4 mg/dL | RALB (3 h): 3.4 g/dL | TBIL (3 h): 0.1 mg/dL | TC (3 h): 76 mg/dL | TG (3 h): 46.2 mg/dL | TP (3 h): 5.6 g/dL | gamma-GTP (3 h): 1 IU/L | TERMINAL_BW (6 h): 208.9 g | APTT (6 h): 18.8 s | Bas (6 h): 0% | Eos (6 h): 0.8% | Fbg (6 h): 226 mg/dL | Hb (6 h): 13.1 g/dL | Ht (6 h): 38.3% | Lym (6 h): 76.4% | MCH (6 h): 21.3 pg | MCHC (6 h): 34.2% | MCV (6 h): 62.2 fL | Mono (6 h): 2.2% | Neu (6 h): 19.2% | PT (6 h): 12.7 s | Plat (6 h): 120.4 x10_4/uL | RBC (6 h): 616.4 x10_4/ul | Ret (6 h): 7.3% | WBC (6 h): 73.5 x10_2/uL | KIDNEY_L (6 h): 0.9 g | KIDNEY_R (6 h): 1 g | KIDNEY_TOTAL (6 h): 1.9 g | LIVER (6 h): 9 g | A/G (6 h): 1.5 | ALP (6 h): 928.2 IU/L | ALT (6 h): 31.4 IU/L | AST (6 h): 66.4 IU/L | BUN (6 h): 8.4 mg/dL | CRE (6 h): 0.4 mg/dL | Ca (6 h): 10.5 mg/dL | Cl (6 h): 103.2 meq/L | DBIL (6 h): 0.066 mg/dL | GLC (6 h): 190.8 mg/dL | IP (6 h): 9.4 mg/dL | K (6 h): 4 meq/L | LDH (6 h): 207.8 IU/L | Na (6 h): 141.4 meq/L | PL (6 h): 144 mg/dL | RALB (6 h): 3.4 g/dL | TBIL (6 h): 0.1 mg/dL | TC (6 h): 75.4 mg/dL | TG (6 h): 59 mg/dL | TP (6 h): 5.6 g/dL | gamma-GTP (6 h): 1 IU/L | TERMINAL_BW (9 h): 206.9 g | APTT (9 h): 18.8 s | Bas (9 h): 0% | Eos (9 h): 0.8% | Fbg (9 h): 222.2 mg/dL | Hb (9 h): 13.2 g/dL | Ht (9 h): 38.4% | Lym (9 h): 72.2% | MCH (9 h): 21.9 pg | MCHC (9 h): 34.4% | MCV (9 h): 63.7 fL | Mono (9 h): 1.2% | Neu (9 h): 25.2% | PT (9 h): 12.8 s | Plat (9 h): 110.1 x10_4/uL | RBC (9 h): 603.4 x10_4/ul | Ret (9 h): 7.2% | WBC (9 h): 68.2 x10_2/uL | KIDNEY_L (9 h): 0.9 g | KIDNEY_R (9 h): 1 g | KIDNEY_TOTAL (9 h): 1.9 g | LIVER (9 h): 8 g | A/G (9 h): 1.5 | ALP (9 h): 772.2 IU/L | ALT (9 h): 31.4 IU/L | AST (9 h): 67.4 IU/L | BUN (9 h): 8.6 mg/dL | CRE (9 h): 0.4 mg/dL | Ca (9 h): 10.4 mg/dL | Cl (9 h): 103.2 meq/L | DBIL (9 h): 0.06 mg/dL | GLC (9 h): 210.6 mg/dL | IP (9 h): 8.6 mg/dL | K (9 h): 3.5 meq/L | LDH (9 h): 195.4 IU/L | Na (9 h): 141.4 meq/L | PL (9 h): 137.2 mg/dL | RALB (9 h): 3.5 g/dL | TBIL (9 h): 0.1 mg/dL | TC (9 h): 72.6 mg/dL | TG (9 h): 23 mg/dL | TP (9 h): 5.8 g/dL | gamma-GTP (9 h): 1.4 IU/L | TERMINAL_BW (24 h): 214 g | APTT (24 h): 17.5 s | Bas (24 h): 0% | Eos (24 h): 0.8% | Fbg (24 h): 216.2 mg/dL | Hb (24 h): 13.5 g/dL | Ht (24 h): 39.4% | Lym (24 h): 82.6% | MCH (24 h): 21.7 pg | MCHC (24 h): 34.4% | MCV (24 h): 63 fL | Mono (24 h): 2.4% | Neu (24 h): 13% | PT (24 h): 13.2 s | Plat (24 h): 135.4 x10_4/uL | RBC (24 h): 624 x10_4/ul | Ret (24 h): 6.2% | WBC (24 h): 85.9 x10_2/uL | KIDNEY_L (24 h): 1 g | KIDNEY_R (24 h): 1 g | KIDNEY_TOTAL (24 h): 1.9 g | LIVER (24 h): 8.6 g | A/G (24 h): 1.5 | ALP (24 h): 925.2 IU/L | ALT (24 h): 40.6 IU/L | AST (24 h): 69.8 IU/L | BUN (24 h): 13.8 mg/dL | CRE (24 h): 0.4 mg/dL | Ca (24 h): 10.7 mg/dL | Cl (24 h): 100.6 meq/L | DBIL (24 h): 0.076 mg/dL | GLC (24 h): 191 mg/dL | IP (24 h): 8.8 mg/dL | K (24 h): 3.8 meq/L | LDH (24 h): 232 IU/L | Na (24 h): 139.6 meq/L | PL (24 h): 142.4 mg/dL | RALB (24 h): 3.4 g/dL | TBIL (24 h): 0.1 mg/dL | TC (24 h): 79.8 mg/dL | TG (24 h): 52.8 mg/dL | TP (24 h): 5.7 g/dL | gamma-GTP (24 h): 1 IU/L
